The nature of the data set: xn = mol fraction of the nth substance listed. Particulars: 101 kPa.

In general, viscosity refers to the internal friction of a fluid under shear. Regarding `C[P+](c1ccccc1)(c1ccccc1)c1ccccc1.[Br-]` + OCC(O)CO, the viscosity runs as follows: (296.97 K, x2 = 0.75) 2771 mPa·s; (301.89 K, x2 = 0.75) 1657 mPa·s; (306.95 K, x2 = 0.75) 1002.8 mPa·s; (312 K, x2 = 0.75) 612 mPa·s; (317.18 K, x2 = 0.75) 382 mPa·s; (353.18 K, x2 = 0.75) 59.5 mPa·s.
As to `[Cl-].c1ccc(C[P+](c2ccccc2)(c2ccccc2)c2ccccc2)cc1` + OCC(O)CO, the viscosity stood at 1359.8 mPa·s (296.84 K, x2 = 0.9412); 943 mPa·s (301.89 K, x2 = 0.9412); 459 mPa·s (312.13 K, x2 = 0.9412); 306 mPa·s (317.31 K, x2 = 0.9412); 110.5 mPa·s (332.72 K, x2 = 0.9412); 59.49 mPa·s (353.18 K, x2 = 0.9412). Besides, the electrical conductivity was determined as 0.007 S/m (298.1 K, x2 = 0.9412); 0.0174 S/m (313.32 K, x2 = 0.9412); 0.0419 S/m (328.03 K, x2 = 0.9412).

These data come from a compilation of properties of binary mixtures (doi:10.1016/j.molliq.2015.11.032).
